In patent US11597708B2, “Inhibitors of heat shock factors and uses thereof” (HSF Pharmaceuticals SA, priority 2016, dated 2023):

Tests used:
MM.1S = experiment: Alamar Blue viability assay; assay type: cell-based, human
Method: FIG. 5. (A) Viability of HeLa cell cultures mock-exposed (−) or exposed to the indicated concentrations of compounds 001, 058 or 115. (B) Viability of MM.1S cells mock-exposed (−) or exposed to the indicated concentrations of compound 115. Viability was assayed after 96 hours of exposure using an Alamar Blue assay.
Cultures of HeLa cells were exposed for 96 hours to different concentrations of IHSF 001, 058 and 115, and viability was assessed using an Alamar Blue assay. It is noted that this standard assay examines attached cells only. This subject will be discussed in more detail below. […] The relative cytotoxicity of the compounds appears to parallel their respective activities as inhibitors of HSF1 function (inhibition of RLuc expression in Z74 cells). We next examined the viability of different human cancer cell lines subsequent to a 96-hour exposure to compound 115 (Table 3). HSF1 was reported as being required for optimal p21 expression and for p53-mediated cell cycle arrest in response to genotoxins. Logan, I. R. et al. (2009) Nucleic Acids Res. 37: 2962-2971. […] Cell lines of different p53 status were included in the experiments in order to find out whether sensitivity to IHSF 115 was related to p53 status. […] No effect of p53 status could be discovered. It is noted that a number of additional HSF inhibitors of the present disclosure were tested and found to effectively reduce the viability of human cancer cells.

HeLa cells = experiment: Flow cytometric analysis of DNA (sub-G0/G1 fraction); assay type: cell-based, human; details: 12.5 or 25 μM for up to 24 h
Method: FIG. 6. (A) HeLa cell cultures were mock-exposed (−) or exposed to the indicated concentrations of compound 115 for 24 (left panel) or 96 (right panel) hours. Cell viability of total cultures, floating cells and attached cells was assayed using an Alamar Blue assay. (B) HeLa cell cultures were mock-exposed (−) or exposed to the indicated concentrations of compound 115 for 15-96 hours. Trypan Blue dye exclusion was employed to determine numbers of live cells (left panel) and relative levels of necrotic cells (right panel). (C) HeLa cell cultures were mock-exposed (−) or exposed to the indicated concentrations of compound 115 for 6 and 24 h. Shown are relative levels of early apoptotic cells (annexin-positive, 7 aminoactinomycin D-negative). (D) Flow cytometric analysis of DNA of HeLa cell cultures mock-exposed (−) or exposed to the indicated concentrations of compound 115 for 6, 15 and 24 hours. Relative levels of apoptotic cells are indicated.
Further studies were aimed at finding out whether IHSF-exposed cancer cells were only growth-arrested or were actually killed and, if they were killed, by what mechanism. […] The viability signal (in whole cultures and, more dramatically, when only attached cells were analyzed) decreased as a function of IHSF concentration. […] Stained (necrotic) and unstained (live) cells were counted (FIG. 6B). […]

[1] = biological target: T1, HSF1 occupancy of the hspa1a promoter (Homo sapiens, UniProt Q00613); experiment: Chromatin immunoprecipitation, HSF1 occupancy of hspa1a promoter in HeLa cells; assay type: cell-based; details: 12.5 μM for two hours, then heat-treated
T1 construct: functionally linked to an hsp70b promoter and therefore controlled by endogenous HSF1; endogenous in cells; host or cells: HeLa cells / HeLa-derived cell line Z74
Method: FIG. 3. (A) HeLa cell cultures were mock-treated (−) or exposed for 2 hours to the indicated concentrations of compounds 058 or 115 and then heat-treated (HS) at 43° C. for 30 min. Top panels: HSF1 DNA-binding activities in cell extracts were determined by EMSA. The panels show the major HSF1-HSE DNA probe complexes. Middle panels: HSF1 levels assayed by western blot (WB). GAPDH served as a loading control. Bottom panels: HSF1 homooligomerization. Aliquots of extracts were EGS-treated and then analyzed by anti-HSF1 WB. The positions of pre-stained molecular weight marker proteins (MW, in thousands) are indicated to the right. Asterisks indicate the positions of monomeric and trimeric HSF1, respectively. (B) Relative occupancy of the hspa1a promoter was assessed by chromatin immunoprecipitation assay of HeLa cell cultures mock-treated (−) or treated with compounds 058 or 115 at 12.5 μM concentrations for 2 hours and then heat-treated (HS) at 43° C. for 30 min. Chromatin fragments were immunoprecipitated using HSF1 antibodies or an F4/80 LR (control) antibody, and associated hspa1a promoter DNA was quantified by real-time PCR.
We also investigated whether the compounds were capable of interfering with HSF1 oligomerization. Aliquots of the extracts were subjected to cross-linking with EGS (ethylene glycolbis(succinimidylsuccinate)) and then re-analyzed by anti-HSF1 WB. […]

T1 sequence (Q00613 whole entry): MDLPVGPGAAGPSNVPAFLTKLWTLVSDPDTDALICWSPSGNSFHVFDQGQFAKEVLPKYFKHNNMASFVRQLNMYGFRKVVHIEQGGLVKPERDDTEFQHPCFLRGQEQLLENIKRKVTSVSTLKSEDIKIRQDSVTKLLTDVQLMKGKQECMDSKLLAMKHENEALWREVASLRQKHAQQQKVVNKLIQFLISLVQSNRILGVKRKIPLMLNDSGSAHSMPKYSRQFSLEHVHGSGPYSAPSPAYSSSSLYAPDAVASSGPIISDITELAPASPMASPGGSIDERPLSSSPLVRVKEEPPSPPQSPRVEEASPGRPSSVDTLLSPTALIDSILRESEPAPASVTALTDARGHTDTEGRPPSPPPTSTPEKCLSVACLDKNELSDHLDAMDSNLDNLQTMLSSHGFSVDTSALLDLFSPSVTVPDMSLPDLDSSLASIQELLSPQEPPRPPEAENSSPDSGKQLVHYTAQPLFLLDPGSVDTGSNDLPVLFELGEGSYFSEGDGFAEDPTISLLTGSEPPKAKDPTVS

With `CN(C(=O)/C=C/C1=NCCCO1)c1ncc(-c2cccnc2)s1` [IHSF 115, (E)-3-(5,6-Dihydro-4H-[1,3]oxazin-2-yl)-N-methyl-N-(5-pyridin-3-yl-thiazol-2-yl)-acrylamide] the “concentration at which complete loss of viability of MM.1S cells occurred” value (MM.1S; 96 hours exposure, Alamar Blue) was 6.25 µM, the EC50 (MM.1S; Homo sapiens, MM1.S, MM.1S, Multiple myeloma, P53 Wt, 96-hour exposure) was 1700 nM and the “concentration at which complete loss of viability of MM.1S cells occurred, in some experiments” value (MM.1S; in some experiments already) was 3.125 µM. For the same compound, the “sub-G0/G1 fractions (% of cells included)” value (HeLa cells) was at most 6% and the “HSF1 occupancy of the hspa1a promoter (ChIP)” value [1] was “not reduced substantially”.
